Here are results for 22 molecules from patent US20220362396A1, “AMINO-PYRAZINECARBOXAMIDE COMPOUNDS, CONJUGATES, AND USES THEREOF” (Silverback Therapeutics, Inc., priority 2018, published 2022).

Assay [1] relates to TGFβ/SMAD Signaling Pathway SBE reporter cell line. The assay can be described thus: TGFβ reporter assay, in vitro small molecule screening (luciferase). The settings on record: TGFβ stimulation, luminescence. It counts as cell-based. An outline of the steps:
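SBE luciferase reporter cells (~0.5×10^6 cells/mL) preincubated with compound 5-6 h at 37 °C in 0.5% FBS MEM, then stimulated with TGFβ (12 ng/mL stock) for 18 h. Luminescence read after luciferase substrate; EC50 from curve fits.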
A general note: A reporter such as luciferase makes a cellular process visible.

Assay [2] addresses T1, TGFBR2 (Homo sapiens, UniProt P37173).
T1 construct: purchased Reaction Biology Corp
The assay can be described thus: TGFBR2 RBC assay (enzyme inhibition assay, Reaction Biology Corp.). In kind it is biochemical. On the procedure: Compounds of the disclosure were also assayed by Reaction Biology Corp. using the TGFBR2 RBC assay (enzyme inhibition assay). […] NT refers to not tested.

Each structure is given as a SMILES string. pEC50, pIC50: −log10 of the molar value.

T1 sequence (P37173 23-567): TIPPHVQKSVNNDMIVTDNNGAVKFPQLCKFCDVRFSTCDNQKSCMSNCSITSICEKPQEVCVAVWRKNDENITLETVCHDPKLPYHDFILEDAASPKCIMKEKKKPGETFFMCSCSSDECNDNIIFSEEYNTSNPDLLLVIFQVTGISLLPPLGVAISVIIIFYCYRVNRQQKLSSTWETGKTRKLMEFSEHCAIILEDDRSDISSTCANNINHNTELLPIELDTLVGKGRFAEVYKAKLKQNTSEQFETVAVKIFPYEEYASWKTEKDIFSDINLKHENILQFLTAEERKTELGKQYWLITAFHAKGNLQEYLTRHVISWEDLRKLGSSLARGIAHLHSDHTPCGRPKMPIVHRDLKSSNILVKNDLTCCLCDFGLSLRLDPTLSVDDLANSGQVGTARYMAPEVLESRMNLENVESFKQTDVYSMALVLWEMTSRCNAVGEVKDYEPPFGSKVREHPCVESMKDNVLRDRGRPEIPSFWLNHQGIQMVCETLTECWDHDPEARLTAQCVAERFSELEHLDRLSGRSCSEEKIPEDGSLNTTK

Consider `NCC1CN(c2ccncc2NC(=O)c2nc(-c3ccc(CCNC(=O)OCc4ccccc4)cc3)cnc2N)CCO1` (centres unmarked) [Compound 30], for which the pEC50 in assay [1] is less than 6.00. Moreover, the pIC50 in assay [2] was 6.00 to 7.00.
For `COc1ccc(-c2cnc(N)c(C(=O)Nc3cnccc3N3CCOCC3)n2)c(OC)c1` [Compound 157], in that order: 6.00 to 7.00 and 6.00 to 7.00.
`Nc1ncc(-c2ccc(Cl)cc2)nc1C(=O)Nc1cnccc1N1CCOCC1` [Compound 160]: the pEC50 in assay [1] is 6.00 to 7.00. Also, the negative-log IC50 (pIC50) in assay [2] is greater than 7.30.
`CC(C)(C)OC(=O)N1CCN(c2ccc(-c3cnc(N)c(C(=O)Nc4cnccc4N4CCOCC4)n3)cc2)CC1` [Compound 71]: in assay [1], the negative logarithm of the EC50 (pEC50) was 6.00 to 7.00. The pIC50 in assay [2] was greater than 7.30.
The molecule `CC(C)(C)OC(=O)N[C@H]1CCN(c2ccc(-c3cnc(N)c(C(=O)Nc4cnccc4N4CCOCC4)n3)cc2)C1` [Compound 273] had a pEC50 in assay [1] of 6.00 to 7.00. For the same molecule, the negative logarithm of the IC50 (pIC50) in assay [2] was greater than 7.30.
For `Nc1ncc(-c2cccc(CCCNC(=O)OCc3ccccc3)c2)nc1C(=O)Nc1cnccc1N1CCOCC1` [Compound 178], in that order: 6.00 to 7.00 and greater than 7.30.
In assay [1], `NCCc1ccc(-c2cnc(N)c(C(=O)Nc3cnccc3N3CCOCC3)n2)c(F)c1` [Compound 55] showed a pEC50 greater than 7.30. In assay [2], this molecule showed a pIC50 greater than 7.30.
`NCCc1ccc(-c2cnc(N)c(C(=O)Nc3cnccc3-n3cncn3)n2)cc1` [Compound 187] showed a pEC50 in assay [1] of 6.00 to 7.00. This molecule also had a negative logarithm of the IC50 (pIC50) in assay [2] greater than 7.30.
For `CCOC(=O)[C@@H]1CNC[C@H]1c1ccc(-c2cnc(N)c(C(=O)Nc3cnccc3N3CCOCC3)n2)cc1` [Compound 227], in that order: 7.00 to 7.30 and greater than 7.30.
In assay [1], `Nc1ncc(-c2cc(Cl)ccc2Cl)nc1C(=O)Nc1cnccc1N1CCOCC1` [Compound 161] showed a negative logarithm of the EC50 (pEC50) of 6.00 to 7.00. In assay [2], this molecule had a pIC50 of 6.00 to 7.00.
`Nc1ncc(-c2ccc(CCNC(=O)CCC(=O)c3ccccc3)cc2)nc1C(=O)Nc1cnccc1N1CCOCC1` [Compound 54] gave a pEC50 in assay [1] of 7.00 to 7.30. In assay [2], this molecule showed a pIC50 greater than 7.30.
In turn, `Nc1ncc(-c2ccc(O[C@H]3C[C@@H](N)C3)cc2)nc1C(=O)Nc1cnccc1N1CCOCC1` [Compound 224] gave a pEC50 in assay [1] of less than 6.00. Besides, in assay [2], the pIC50 is greater than 7.30.
`Nc1ncc(-c2ccc3c(c2)OCCN3)nc1C(=O)Nc1cnccc1N1CCOCC1` [Compound 217] showed a pEC50 in assay [1] of 6.00 to 7.00. This molecule also had a negative-log IC50 (pIC50) in assay [2] greater than 7.30.
As to `NCCc1ccc(-c2cnc(N)c(C(=O)Nc3c(N4CCOCC4)ccnc3N)n2)cc1` [Compound 131], the pEC50 in assay [1] is less than 6.00. Besides, the negative-log IC50 (pIC50) in assay [2] is less than 6.00.
In assay [1], `N#Cc1ccccc1-c1ccncc1NC(=O)c1nc(-c2ccc(CCNC(=O)OCc3ccccc3)cc2)cnc1N` [Compound 31] showed a negative logarithm of the EC50 (pEC50) of less than 6.00. Besides, in assay [2], the pIC50 is less than 6.00.
Molecule `CC(N)COc1cccc(-c2cnc(N)c(C(=O)Nc3cnccc3N3CCOCC3)n2)c1` (centres unmarked) [Compound 194] had a negative logarithm of the EC50 (pEC50) in assay [1] of 6.00 to 7.00. For the same molecule, the negative logarithm of the IC50 (pIC50) in assay [2] was greater than 7.30.
`COC1CN(c2ccncc2NC(=O)c2nc(-c3ccc(CCN)cc3)cnc2N)C1` [Compound 98] showed a negative logarithm of the EC50 (pEC50) in assay [1] of less than 6.00. This molecule also showed a pIC50 in assay [2] of less than 6.00.
In assay [1], `Nc1ncc(-c2ccc3c(c2)CCNC3=O)nc1C(=O)Nc1cnccc1N1CCOCC1` [Compound 201] gave a pEC50 of 6.00 to 7.00. Besides, the negative-log IC50 (pIC50) in assay [2] is 6.00 to 7.00.
`Nc1ccc(-c2ccncc2NC(=O)c2nc(-c3ccc(CCNC(=O)OCc4ccccc4)cc3)cnc2N)cn1` [Compound 43]: the pEC50 in assay [1] was 6.00 to 7.00. Also, the negative-log IC50 (pIC50) in assay [2] is greater than 7.30.
In the case of `Nc1ncc(-c2ccc(OCC[C@@H](N)C(=O)O)cc2)nc1C(=O)Nc1cnccc1N1CCOCC1` [Compound 275], the pEC50 in assay [1] was less than 6.00. The molecule also gave a pIC50 in assay [2] of 7.00 to 7.30.
In assay [1], `Nc1ncc(-c2ccc(CCCNC(=O)OCc3ccccc3)cc2)cc1C(=O)Nc1cnccc1N1CCOCC1` [Compound 79] showed a negative-log EC50 (pEC50) of 6.00 to 7.00. This molecule also showed a pIC50 in assay [2] of less than 6.00.
The molecule `COC(=O)c1cc(-c2cnc(N)c(C(=O)Nc3cnccc3N3CCOCC3)n2)ccc1OCCCN1C(=O)c2ccccc2C1=O` [Compound 240] had a pEC50 in assay [1] of less than 6.00. In assay [2], this molecule showed a negative-log IC50 (pIC50) of 7.00 to 7.30.

In general, pEC50 refers to the EC50 on a negative log10 scale, so that one unit is a factor of ten. As usually defined, the pIC50 is the IC50 on a negative log10 scale, so that one unit is a factor of ten. Lower therefore signals a large IC50.
